Laboratory results published in PubChem BioAssay AID248 (DTP/NCI, 2004).
Several values for one entry are separate records, joined by “and”; a condition that tells them apart may be missing. Identical values can stand only once. Inconclusive results and toxic doses are left out.

Test system: L1210 leukemia ip in BDF1 mice, survival T/C
Assay: NCI In Vivo Anticancer Drug Screen. Data for tumor model L1210 Leukemia (intraperitoneal) in B6D2F1 (BDF1) mice
Settings: endpoint: mean survival time, higher = longer survival
In short: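 Ratio derived from survival: compound-dosed mice over vehicle-dosed mice, all bearing a transplantable tumor.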

[1] = dose: 100.0 mg/kg/injection, schedule: Q04DX002 (ip), vehicle: saline
[2] = dose: 200.0 mg/kg/injection, schedule: Q04DX002 (ip), vehicle: saline
[3] = dose: 400.0 mg/kg/injection, schedule: Q04DX002 (ip), vehicle: saline
[4] = dose: 100.0 mg/kg/injection, schedule: Q04DX003 (ip), vehicle: saline with Tween-80
[5] = dose: 200.0 mg/kg/injection, schedule: Q04DX003 (ip), vehicle: saline with Tween-80
[6] = dose: 400.0 mg/kg/injection, schedule: Q04DX003 (ip), vehicle: saline with Tween-80
[7] = dose: 100.0 mg/kg/injection, schedule: Q01DX009 (ip), vehicle: saline with Tween-80
[8] = dose: 200.0 mg/kg/injection, schedule: Q01DX009 (ip), vehicle: saline with Tween-80
[9] = dose: 400.0 mg/kg/injection, schedule: Q01DX009 (ip), vehicle: saline with Tween-80
[10] = dose: 12.5 mg/kg/injection, schedule: Q04DX002 (ip), vehicle: Klucel (hydroxypropylcellulose) (HPC)
[11] = dose: 25.0 mg/kg/injection, schedule: Q04DX002 (ip), vehicle: Klucel (hydroxypropylcellulose) (HPC)
[12] = dose: 100.0 mg/kg/injection, schedule: Q04DX003 (ip), vehicle: Klucel (hydroxypropylcellulose) (HPC)
[13] = dose: 200.0 mg/kg/injection, schedule: Q04DX003 (ip), vehicle: Klucel (hydroxypropylcellulose) (HPC)
[14] = dose: 400.0 mg/kg/injection, schedule: Q04DX003 (ip), vehicle: Klucel (hydroxypropylcellulose) (HPC)
[15] = dose: 100.0 mg/kg/injection, schedule: Q04DX002 (ip), vehicle: saline with Tween-80
[16] = dose: 200.0 mg/kg/injection, schedule: Q04DX002 (ip), vehicle: saline with Tween-80
[17] = dose: 400.0 mg/kg/injection, schedule: Q04DX002 (ip), vehicle: saline with Tween-80

In the case of `Cc1cc(NC(=O)N(CCCl)N=O)c(C)cc1NC(=O)c1ccccc1`, the T/C (dose: 4.2 mg/kg/injection, schedule: Q01DX009 (ip), vehicle: carboxymethylcellulose (CMC)) is reported as 124 % of control, the T/C (dose: 9.6 mg/kg/injection, schedule: Q01DX001 (ip), vehicle: carboxymethylcellulose (CMC)) is reported as 111 % of control and the T/C (dose: 14.0 mg/kg/injection, schedule: Q01DX009 (ip), vehicle: other) is reported as 186 % of control. For the same compound, the T/C (dose: 22.0 mg/kg/injection, schedule: Q01DX009 (ip), vehicle: other) was 196 % of control, the T/C (dose: 33.0 mg/kg/injection, schedule: Q01DX009 (ip), vehicle: other) was 213 % of control and the T/C (dose: 50.0 mg/kg/injection, schedule: Q01DX009 (ip), vehicle: carboxymethylcellulose (CMC)) was 180 % of control. For the same compound, the T/C (dose: 58.0 mg/kg/injection, schedule: Q01DX009 (ip), vehicle: carboxymethylcellulose (CMC)) was 175 % of control, the T/C (dose: 75.0 mg/kg/injection, schedule: Q01DX001 (ip), vehicle: carboxymethylcellulose (CMC)) was 159 % of control and the T/C (dose: 75.0 mg/kg/injection, schedule: Q01DX009 (ip), vehicle: carboxymethylcellulose (CMC)) was 193 % of control. For the same compound, the T/C (dose: 88.0 mg/kg/injection, schedule: Q01DX009 (ip), vehicle: carboxymethylcellulose (CMC)) was 190 % of control, the T/C (dose: 120.0 mg/kg/injection, schedule: Q01DX001 (ip), vehicle: carboxymethylcellulose (CMC)) was 150 % of control and the T/C (dose: 132.0 mg/kg/injection, schedule: Q01DX009 (ip), vehicle: carboxymethylcellulose (CMC)) was 228 % of control. The T/C (dose: 177.0 mg/kg/injection, schedule: Q01DX001 (ip), vehicle: carboxymethylcellulose (CMC)) was 153 % of control, the T/C (dose: 200.0 mg/kg/injection, schedule: Q01DX009 (ip), vehicle: carboxymethylcellulose (CMC)) was 163 % of control and the T/C (dose: 266.0 mg/kg/injection, schedule: Q01DX001 (ip), vehicle: carboxymethylcellulose (CMC)) was 162 % of control. For the same compound, the T/C (dose: 266.0 mg/kg/injection, schedule: Q01DX001 (ip), vehicle: other) was 91 % of control, the T/C (dose: 400.0 mg/kg/injection, schedule: Q01DX001 (ip), vehicle: carboxymethylcellulose (CMC)) was 245 % of control and the T/C (dose: 600.0 mg/kg/injection, schedule: Q01DX001 (ip), vehicle: carboxymethylcellulose (CMC)) was 219 % of control.
With `NC(=O)NC1CON(C(N)=O)C1=O` (centres undefined) the T/C [1] was 94 % of control, the T/C [2] was 112 % of control and the T/C [3] was 94 % of control.
With `N#CCc1ccc2c(c1)Sc1ccccc1O2` the T/C (dose: 100.0 mg/kg/injection, schedule: Q01DX009 (ip), vehicle: Klucel (hydroxypropylcellulose) (HPC)) was 94 % of control, the T/C (dose: 200.0 mg/kg/injection, schedule: Q01DX009 (ip), vehicle: Klucel (hydroxypropylcellulose) (HPC)) was 100 % of control and the T/C (dose: 400.0 mg/kg/injection, schedule: Q01DX009 (ip), vehicle: Klucel (hydroxypropylcellulose) (HPC)) was 93 % of control.
In the case of `NC(CCC(=O)Nc1cccc2ccccc12)C(=O)O` (centres undefined), the T/C [4] is reported as 105 % of control, the T/C [5] is reported as 100 % of control and the T/C [6] is reported as 106 % of control.
With `CC(C)CCC(C)O[Si](C)c1ccccc1` (centres undefined) the T/C [4] was 97 % of control, the T/C [5] was 99 % of control and the T/C [6] was 101 % of control.
For `CCNC(C)(C)C(SS(=O)(=O)O)c1cccs1` (centres undefined), the T/C (dose: 100.0 mg/kg/injection, schedule: Q04DX003 (ip), vehicle: water) was 109 % of control, the T/C (dose: 200.0 mg/kg/injection, schedule: Q04DX003 (ip), vehicle: water) was 96 % of control and the T/C (dose: 400.0 mg/kg/injection, schedule: Q04DX003 (ip), vehicle: water) was 94 % of control.
With `CC(C)C(Br)C(=O)NC(Cc1ccccc1)C(=O)O` (centres undefined) the T/C [7] was 96 % of control, the T/C [8] was 96 % of control and the T/C [9] was 92 % of control.
For `Nc1nc(-c2ccc3c(c2)Sc2ccccc2O3)cs1`, the T/C (dose: 75.0 mg/kg/injection, schedule: Q04DX003 (ip), vehicle: saline) was 93 % of control, the T/C (dose: 150.0 mg/kg/injection, schedule: Q04DX003 (ip), vehicle: saline) was 91 % of control and the T/C (dose: 300.0 mg/kg/injection, schedule: Q04DX003 (ip), vehicle: saline) was 91 % of control.
`CC(C)CCOC(CN)C(Cl)(Cl)Cl` (centres undefined) was tested, and the T/C (dose: 25.0 mg/kg/injection, schedule: Q01DX009 (ip), vehicle: saline) was 96 % of control and 107 % of control, the T/C (dose: 25.0 mg/kg/injection, schedule: Q04DX002 (ip), vehicle: saline) was 98 % of control and 106 % of control and the T/C (dose: 25.0 mg/kg/injection, schedule: Q04DX003 (ip), vehicle: saline) was 118 % of control. The T/C (dose: 50.0 mg/kg/injection, schedule: Q01DX009 (ip), vehicle: saline) was 96 % of control and 100 % of control, the T/C (dose: 50.0 mg/kg/injection, schedule: Q04DX002 (ip), vehicle: saline) was 95 % of control and the T/C (dose: 50.0 mg/kg/injection, schedule: Q04DX003 (ip), vehicle: saline) was 102 % of control. For the same compound, the T/C (dose: 100.0 mg/kg/injection, schedule: Q01DX009 (ip), vehicle: saline) was 98 % of control and 100 % of control and the T/C (dose: 100.0 mg/kg/injection, schedule: Q04DX003 (ip), vehicle: saline) was 96 % of control and 109 % of control.
With `Nc1cc(N)c(N)cc1N` the T/C (dose: 9.38 mg/kg/injection, schedule: Q01DX001 (ip), vehicle: saline) was 95 % of control, the T/C (dose: 18.75 mg/kg/injection, schedule: Q01DX001 (ip), vehicle: saline) was 101 % of control and the T/C (dose: 37.5 mg/kg/injection, schedule: Q01DX001 (ip), vehicle: saline) was 111 % of control.
With `CC(C)(C)Nc1ccc(C#N)cc1` the T/C [10] was 97 % of control, the T/C [11] was 94 % of control and the T/C (dose: 50.0 mg/kg/injection, schedule: Q04DX002 (ip), vehicle: Klucel (hydroxypropylcellulose) (HPC)) was 87 % of control.
`CCN1/C(=C/C(C)=C/c2[se]c3ccc(C)cc3[n+]2CC)[Se]c2ccc(C)cc21` was tested, and the T/C (dose: 2.0 mg/kg/injection, schedule: Q01DX001 (ip), vehicle: other) was 109 % of control and the T/C (dose: 4.0 mg/kg/injection, schedule: Q01DX001 (ip), vehicle: other) was 114 % of control.
With `O=C(CCN1CC1)Nc1ccc(Cl)c(Cl)c1` the T/C (dose: 20.0 mg/kg/injection, schedule: Q04DX003 (ip), vehicle: Klucel (hydroxypropylcellulose) (HPC)) was 88 % of control, the T/C (dose: 25.0 mg/kg/injection, schedule: Q01DX009 (ip), vehicle: Klucel (hydroxypropylcellulose) (HPC)) was 98 % of control and the T/C (dose: 40.0 mg/kg/injection, schedule: Q04DX003 (ip), vehicle: Klucel (hydroxypropylcellulose) (HPC)) was 98 % of control. For the same compound, the T/C (dose: 50.0 mg/kg/injection, schedule: Q01DX009 (ip), vehicle: Klucel (hydroxypropylcellulose) (HPC)) was 101 % of control, the T/C (dose: 80.0 mg/kg/injection, schedule: Q04DX003 (ip), vehicle: Klucel (hydroxypropylcellulose) (HPC)) was 92 % of control and the T/C [12] was 86 % of control.
`CC(C)OC(=O)Nc1ccc(Cl)cn1` was tested, and the T/C [12] was 103 % of control, the T/C [13] was 101 % of control and the T/C [14] was 95 % of control.
`CC1(C)OCC(CO)O1` (centres undefined) was tested, and the T/C [7] was 101 % of control, the T/C [4] was 105 % of control and the T/C [8] was 98 % of control. The T/C [5] was 97 % of control, the T/C [9] was 104 % of control and the T/C [6] was 100 % of control.
For `O=S1(=O)CN2C=CC=CC2=N1`, the T/C [15] was 113 % of control, the T/C [16] was 91 % of control and the T/C [17] was 109 % of control.
`CCC[CH2][Sn]([Cl])([Cl])[CH2]CCC.c1ccncc1` was tested, and the T/C (dose: 3.0 mg/kg/injection, schedule: Q01DX009 (ip), vehicle: Klucel (hydroxypropylcellulose) (HPC)) was 93 % of control, the T/C (dose: 6.0 mg/kg/injection, schedule: Q01DX009 (ip), vehicle: Klucel (hydroxypropylcellulose) (HPC)) was 107 % of control and the T/C (dose: 12.0 mg/kg/injection, schedule: Q01DX009 (ip), vehicle: Klucel (hydroxypropylcellulose) (HPC)) was 92 % of control. The T/C (dose: 12.5 mg/kg/injection, schedule: Q01DX009 (ip), vehicle: Klucel (hydroxypropylcellulose) (HPC)) was 87 % of control, the T/C [10] was 91 % of control and the T/C [11] was 106 % of control.
In the case of `COc1ccc(OC)c(NC(=O)Nc2ccccc2C(N)=O)c1`, the T/C [12] is reported as 97 % of control, the T/C [13] is reported as 95 % of control and the T/C [14] is reported as 93 % of control.
For `NC(=S)N/N=C\C(c1ccccc1)c1ccccc1`, the T/C [7] was 98 % of control, the T/C [4] was 96 % of control and the T/C [8] was 94 % of control. For the same compound, the T/C [5] was 95 % of control, the T/C [9] was 96 % of control and the T/C [6] was 104 % of control.
`CN(CC(C)(C)C=O)CC(C)(C)C=O` was tested, and the T/C [1] was 112 % of control, the T/C [2] was 101 % of control and the T/C [3] was 108 % of control.
For `O=C1c2cscc2C(O)c2c(Cl)sc(Cl)c21` (centres undefined), the T/C [15] was 101 % of control, the T/C [16] was 97 % of control and the T/C [17] was 89 % of control.
